From ChEMBL document CHEMBL4673400, “Potential of Cyclin-Dependent Kinase Inhibitors as Cancer Therapy” (ACS Med Chem Lett, 2021)

molecular target: Cyclin-dependent kinase 2/cyclin E1 (Homo sapiens, UniProt P24941)
Description: Inhibition of recombinant full length wild-type phosphorylated CDK2/Cyclin E1 (unknown origin) expressed in baculovirus expression system assessed as reduction in production of ADP using 5-FAM-QSPKKG-CONH2 peptide as substrate preincubated with enzyme for 15 mins followed by further incubation with ATP for 45 mins by fluorescence-based microfluidic mobility shift assay

Ki [nM] | Structure (SMILES)
0.16 | C[C@@]1(O)CCC[C@H]1n1c(=O)c(CC#N)cc2cnc(NC3CCN(S(C)(=O)=O)CC3)nc21
0.25 | C[C@@]1(O)CCC[C@H]1n1c(=O)ccc2cnc(NC3CCN(S(=O)(=O)CC4CC4)CC3)nc21
0.12 | C[C@@H]1[C@H](O)CC[C@H]1n1c(=O)ccc2cnc(NC3CCN(S(C)(=O)=O)CC3)nc21
0.28 | CNS(=O)(=O)N1CCC(Nc2ncc3ccc(=O)n([C@@H]4CCC[C@@]4(C)O)c3n2)CC1
7.32 | C[C@]1(O)CCC[C@@H]1n1c(=O)ccc2cnc(NC3CCN(S(=O)(=O)c4nccs4)CC3)nc21
0.1 | C[C@@]1(O)CCC[C@H]1n1c(=O)ccc2cnc(NC3CCN(S(N)(=O)=O)CC3)nc21
0.2 | CNS(=O)(=O)N1CCC(Nc2ncc3cc(Cl)c(=O)n([C@@H]4CCC[C@@]4(C)O)c3n2)CC1
1.73 | CS(=O)(=O)N1CCC(Nc2ncc3cc(CC(N)=O)c(=O)n([C@@H]4CCC[C@@H](O)C4)c3n2)CC1

molecular target: CDK6/cyclin D1 (Homo sapiens, UniProt Q00534)
Sequence (P24385 whole entry): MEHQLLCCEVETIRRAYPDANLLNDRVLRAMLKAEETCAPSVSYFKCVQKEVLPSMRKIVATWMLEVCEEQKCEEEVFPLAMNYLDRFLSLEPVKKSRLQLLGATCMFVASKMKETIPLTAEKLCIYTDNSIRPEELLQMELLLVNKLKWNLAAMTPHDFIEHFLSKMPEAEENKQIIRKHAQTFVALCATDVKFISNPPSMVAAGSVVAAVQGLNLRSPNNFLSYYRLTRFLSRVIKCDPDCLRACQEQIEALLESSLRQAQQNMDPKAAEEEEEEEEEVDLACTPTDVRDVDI
Sequence (Q00534 whole entry): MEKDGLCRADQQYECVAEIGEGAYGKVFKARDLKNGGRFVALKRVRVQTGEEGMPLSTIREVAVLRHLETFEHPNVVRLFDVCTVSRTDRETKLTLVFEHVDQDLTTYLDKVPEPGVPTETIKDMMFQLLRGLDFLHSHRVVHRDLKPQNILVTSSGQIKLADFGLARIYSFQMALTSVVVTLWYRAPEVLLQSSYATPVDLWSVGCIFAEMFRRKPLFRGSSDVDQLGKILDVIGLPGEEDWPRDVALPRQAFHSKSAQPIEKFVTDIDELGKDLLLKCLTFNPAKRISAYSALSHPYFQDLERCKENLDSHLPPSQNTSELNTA

Ki [nM] | Structure (SMILES)
0.88 | C[C@@]1(O)CCC[C@H]1n1c(=O)ccc2cnc(NC3CCN(S(=O)(=O)CC4CC4)CC3)nc21
